Assay results: ChEMBL document CHEMBL1649267, “Molecular epidemiology and mechanisms of carbapenem resistance in Pseudomonas aeruginosa” (2009)
≈ marks a conversion by molar mass, not a printed value.

How the values were obtained:
Type in all cases: functional
Pseudomonas aeruginosa [1] = settings: isolate Paebeta-24
Pseudomonas aeruginosa [2] = settings: isolate Paebeta-27
Pseudomonas aeruginosa [3] = settings: isolate Paebeta-15
Pseudomonas aeruginosa [4] = settings: isolate Paebeta-18
Pseudomonas aeruginosa [5] = settings: isolate Paebeta-03

For `CO/N=C(\C(=O)N[C@@H]1C(=O)N2C(C(=O)[O-])=C(C[N+]3(C)CCCC3)CS[C@H]12)c1csc(N)n1`, the MIC (Pseudomonas aeruginosa [1]) was 64 µg/mL (≈ 133 µM), the MIC (Pseudomonas aeruginosa [2]) was 64 µg/mL (≈ 133 µM) and the MIC (Pseudomonas aeruginosa [3]) was 128 µg/mL (≈ 266 µM). The MIC (Pseudomonas aeruginosa [4]) was 128 µg/mL (≈ 266 µM) and the MIC (Pseudomonas aeruginosa [5]) was 64 µg/mL (≈ 133 µM).
`C[C@H]1[C@H](NC(=O)/C(=N\OC(C)(C)C(=O)O)c2csc(N)n2)C(=O)N1S(=O)(=O)O` [AZTREONAM] was tested, and the MIC (Pseudomonas aeruginosa [4]) was 128 µg/mL (≈ 294 µM).
